Laboratory results taken from patent publication US20100087399A1 (priority 2007, published 2010).
Several values for one entry are separate records, joined by “and”; a condition that tells them apart may be missing. Identical values can stand only once.

How the values were obtained:
NF κB [1] = assay: Level of active NF κB in cancer cells of ascitic fluid of SK-OV-3 tumor-bearing nude mice; format: in vivo; details: 0 mg/kg CMA
Description: (§1) The level of active NF κB in cell extract was measured with StressXpress NF κB, p50 ELISA Kit (StressGen, cat. No EKS-445) and luminescent spectrophotometer SM 2203 (Solar, Belarus).
To study the ability of different amounts of CMA to inhibit the NF κB activity, tumor growth and to increase the survival rate in combination with a chemotherapeutic agent, BALB/c female nude mice (6 to 8 weeks of age) were intraperitoneally injected with SK-OV-3 cells (1×10^7 cells/0.5 ml media/mouse). The all mice were divided into the several groups of animals (32 animals per group) which were treated with different doses of CMA, its salts or its ester. All mice were injected also ether with vehicle (diluent) or with chemotherapeutic agent or with or combinations of chemotherapeutic agent. Some groups were injected additionally with one or other aromatase inhibior, along with chemotherapeutic agent. Cisplatin (CP) was administered at dose 5 mg/kg intraperitoneally once weekly for the first 3 weeks; Doxorubicin (Dox) was given 8 mg/kg intravenously on days 0 and 7; Paclitaxel (Pcl) was injected intravenously at dose 10 mg/kg body weight thrice weekly, on alternate days for 4 weeks; 10 mg/kg/day. Toremifen was administered per os at dose 10 mg/kg/day in starch gel. Anastozole was injected subcutaneously with 5 μg of […] in 0.1 mL of PBS. CMA was administered once a day on each second day.
Also, the day of 50% survival rate was scored for other 16 animals in each group group. The serum alpha interferon (alpha IFN) level was measured 2 hours after first administration of CMA, its salts or it ester. Mouse IFN-alpha was measured in serum was detected (in pg/ml) using the enzyme-linked immunosorbent assay kit purchased from PBL Biomedical Laboratories (USA, Piscataway, N.J.).

SK-OV-3 cells = assay: Survival of nude mice intraperitoneally injected with SK-OV-3 cells; format: in vivo; details: 0 mg/kg CMA
ovarian cancer [2] = assay: Clinical case reports of combined therapy of ovarian cancer (Examples 7-9); format: in vivo, human; details: Example 7: stage III patient; 2 courses of cisplatin alone
NF κB [3] = assay: NF κB activation caused by chemotherapeutic agent in OVCAR-3 cells; format: cell-based, human; design: level of active NF κB (as percents of control) in the absence of CMA: concentration or dose not given beside the values; details: for level of active NF κB (as percents of control) in the presence of CMA: its salt or ester 1 × 10^−12 M
Description: as §1
The experiments were performed as described in Example 1. The human ovarian carcinoma cell lines OVCAR-3 was used. The cells were incubated at 37° C. in RPMI 1640 medium supplemented with 10% embryonic calf serum. […] Corresponding chemical agent or the vehicle (control) was added to the culture medium simultaneously with CMA, its salt or ester (1×10^−12 M). The cells were separated by centrifugation. The level of active NF κB was assessed in nuclear lysate.

alpha interferon = assay: Serum alpha interferon in SK-OV-3 tumor-bearing nude mice (ELISA); format: in vivo; details: 0 mg/kg CMA
NF κB [4] = assay: Level of active NF κB in primary human ovarian cancer cells from ascitic fluid (StressXpress NF κB p50 ELISA); format: cell-based; details: 8 hours
ovarian cancer [5] = details: intraperitoneal alpha-interferon in combination with carboplatinum; cited from earlier work
ovarian cancer [6] = details: gamma-interferon added to cisplatinum+cyclophosphamide; cited from earlier work

N.N.[Cl][Pt][Cl] [Cisplatin, cisplatin]
level of NF kB (mean) (NF κB [1]; Cisplatin (CP) alone): 380 percent from the control and 356 percent from the control and 420 percent from the control | day when 50% of animals in the group were still alive (SK-OV-3 cells; Cisplatin (CP) alone): 34 days and 44 days and 42 days | clinical outcome (ovarian cancer [2]): No therapy effects were observed | level of active NF κB (as percents of control) in the absence of CMA (NF κB [3]; Cisplatin alone): 117% and 121% and 120% and 119% and 118% and 125% and 122% | interferon level (mean) (alpha interferon; Cisplatin (CP) alone): 4 pg/mL and 2 pg/mL and 3 pg/mL

O=P1(N(CCCl)CCCl)NCCCO1 (centres unmarked) [Cyclophosphamide, cyclophosphamide]
level of active NF κB (as percents of control) in the absence of CMA (NF κB [3]; Cyclophosphamide alone): 221% and 217% and 210% and 214%

COc1cccc2c1C(=O)c1c(O)c3c(c(O)c1C2=O)C[C@@](O)(C(=O)CO)C[C@@H]3O[C@H]1C[C@H](N)[C@H](O)[C@H](C)O1 [Doxorubicin, doxorubicin]
level of NF kB (mean) (NF κB [1]; Doxorubicin (Dox) alone): 450 percent from the control and 470 percent from the control and 430 percent from the control | day when 50% of animals in the group were still alive (SK-OV-3 cells; Doxorubicin (Dox) alone): 36 days and 37 days and 43 days | level of active NF κB (as percents of control) in the absence of CMA (NF κB [3]; Doxorubicin alone): 524% and 538% and 550% and 497% and 562% and 540% and 531% | interferon level (mean) (alpha interferon; Doxorubicin (Dox) alone): 3 pg/mL and 4 pg/mL and 5 pg/mL

CC(=O)O[C@H]1C(=O)[C@@]2(C)[C@H]([C@H](OC(=O)c3ccccc3)[C@]3(O)C[C@H](OC(=O)[C@H](O)[C@@H](NC(=O)c4ccccc4)c4ccccc4)C(C)=C1C3(C)C)[C@]1(OC(C)=O)CO[C@@H]1C[C@@H]2O [Paclitaxel, paclitaxel, reference compound]
level of NF kB (mean) (NF κB [1]; Paclitaxel (Pcl) alone): 420 percent from the control and 411 percent from the control and 442 percent from the control | day when 50% of animals in the group were still alive (SK-OV-3 cells; Paclitaxel (Pcl) alone): 41 days and 40 days and 38 days | interferon level (mean) (alpha interferon; Paclitaxel (Pcl) alone): 8 pg/mL and 6 pg/mL and 5 pg/mL

CCCOC(=O)Cn1c2ccccc2c(=O)c2ccccc21 [PropCMA]
active NF κB (in percents of control) (NF κB [4]; 1 × 10^−10 M, Patient 1): 32%/10 | active NF κB (in percents of control) (NF κB [4]; 1 × 10^−10 M, Patient 2): 31%/20 | active NF κB (in percents of control) (NF κB [4]; 1 × 10^−10 M, Patient 3): 36%/20 | active NF κB (in percents of control) (NF κB [4]; 1 × 10^−12 M, Patient 1): 68%/10 | active NF κB (in percents of control) (NF κB [4]; 1 × 10^−12 M, Patient 2): 59%/20 | active NF κB (in percents of control) (NF κB [4]; 1 × 10^−12 M, Patient 3): 64%/20 | active NF κB (in percents of control) (NF κB [4]; 1 × 10^−13 M, Patient 1): 89%/0 | active NF κB (in percents of control) (NF κB [4]; 1 × 10^−13 M, Patient 2): 91%/0 | active NF κB (in percents of control) (NF κB [4]; 1 × 10^−13 M, Patient 3): 81%/0 | level of active NF κB (as percents of control) in the presence of CMA (NF κB [3]; 5-FU + CMA): 86% | level of active NF κB (as percents of control) (NF κB [3]; CMA, its salt or ester 1 × 10^−12 M + Vechicle): 84% | level of active NF κB (as percents of control) in the presence of CMA (NF κB [3]; Cisplatin + CMA): 66% | level of active NF κB (as percents of control) in the presence of CMA (NF κB [3]; Cyclophosphamide + CMA): 95% | level of active NF κB (as percents of control) in the presence of CMA (NF κB [3]; Doxorubicin + CMA): 178%

alpha-interferon
efficacy in respect of ovarian cancer (ovarian cancer [5]): did not prove any efficacy

gamma-interferon: cytokine immunomodulator with antiviral and antitumor activity
number of patients who had no progression within the 3 year period (ovarian cancer [6]): 51%
